The source of these data is patent US20190077766A1, “Compositions For APP-Selective BACE Inhibition And Uses Therefor” (NantNeuro, LLC, priority 2015, published 2019).

Read-outs that look alike come from different tables or passages of the source.

Data set [1] deals with T1, APP (Homo sapiens, UniProt P05067).
T1 construct: made in house
Description: APP binding (APP Kd), surface plasmon resonance. The source says: ABBI Assay: APP Binding BACE Inhibitor (ABBI) activity of any of the compounds described herein can readily be verified using, for example, assays described herein. Basically, in certain embodiments a pair the assays are utilized to identify ABBI compounds that inhibit BACE cleavage of the MBP-C125 APP substrate, resulting in the inhibition of the production of C99 and the β-site peptide substrate (P5-P5′) and also interacts with APP, for example, as measured by surface plasmon resonance (SPR) analysis. In one illustrative embodiment, an MBP-C125 APP695 wt fusion protein can be used as one of the substrates and the second substrate can be the commercially available P5-P5′ fluorescence substrate. […]
For orientation: SPR reads the build-up and loss of mass on a sensor chip optically.

For data set [2], the target named is T2, BACE1 (Homo sapiens, UniProt P56817).
T2 construct: purchased R&D 931-AS-050
Description: in vitro BACE inhibition assay (Primary BACE1 IC50). The format is biochemical. The source says: ABBI Assay: APP Binding BACE Inhibitor (ABBI) activity of any of the compounds described herein can readily be verified using, for example, assays described herein. Basically, in certain embodiments a pair the assays are utilized to identify ABBI compounds that inhibit BACE cleavage of the MBP-C125 APP substrate, resulting in the inhibition of the production of C99 and the β-site peptide substrate (P5-P5′) and also interacts with APP, for example, as measured by surface plasmon resonance (SPR) analysis. In one illustrative embodiment, an MBP-C125 APP695 wt fusion protein can be used as one of the substrates and the second substrate can be the commercially available P5-P5′ fluorescence substrate.

A short description of data set [3]: PAMPA parallel artificial membrane permeability assay. The format is in vitro ADME. The settings on record: Table 4. On the technique in general: The PAMPA barrier holds no transporters, so it reflects passive diffusion.

T2 sequence (P56817 46-457 limits assumed): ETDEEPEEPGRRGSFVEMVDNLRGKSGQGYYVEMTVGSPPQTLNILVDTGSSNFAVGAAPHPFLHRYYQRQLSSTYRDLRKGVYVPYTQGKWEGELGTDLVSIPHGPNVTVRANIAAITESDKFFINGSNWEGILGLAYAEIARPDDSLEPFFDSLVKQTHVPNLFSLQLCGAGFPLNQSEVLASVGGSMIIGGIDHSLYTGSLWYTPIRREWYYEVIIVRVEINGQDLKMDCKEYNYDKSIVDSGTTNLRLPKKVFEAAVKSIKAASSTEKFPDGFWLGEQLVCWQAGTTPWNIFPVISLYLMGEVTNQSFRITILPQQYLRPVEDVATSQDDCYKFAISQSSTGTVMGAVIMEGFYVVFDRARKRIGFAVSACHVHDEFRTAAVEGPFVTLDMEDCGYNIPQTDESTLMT
T1 sequence (P05067 230-624 isoform P05067-4): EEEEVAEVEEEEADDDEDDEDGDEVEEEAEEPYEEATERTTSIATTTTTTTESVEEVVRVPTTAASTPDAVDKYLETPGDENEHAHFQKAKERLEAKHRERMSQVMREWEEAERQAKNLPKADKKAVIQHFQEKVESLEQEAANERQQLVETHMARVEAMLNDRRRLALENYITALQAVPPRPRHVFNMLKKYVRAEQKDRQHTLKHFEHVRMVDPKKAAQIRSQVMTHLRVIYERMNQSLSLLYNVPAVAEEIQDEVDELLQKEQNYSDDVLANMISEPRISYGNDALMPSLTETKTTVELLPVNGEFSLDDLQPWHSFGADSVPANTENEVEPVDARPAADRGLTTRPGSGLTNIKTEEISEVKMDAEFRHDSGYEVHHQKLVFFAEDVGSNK

What is called IC50 is the midpoint of a concentration-inhibition curve. Consider `Cc1cc(C2(c3cc(F)cc(F)c3)N=C(N)N(C)C2=O)ccc1OC(F)F` (stereo not shown) [FAH-03], for which the Kd in data set [1] was roughly 300 nM. The IC50 in data set [2] (Tables 1 and 2, read-out: Primary BACE1 IC50) was determined as 530 nM.

As for `CNCCc1cccc(C2(c3ccc(OC(F)F)c(C)c3)N=C(N)N(C)C2=O)c1` (stereo not shown) [FAH-63], in data set [2] (Table 4, several values in a cell = several determinations, read-out: BACE1 IC50), the 50% inhibitory concentration (IC50) came out at 1180 nM. For the same compound, the PAMPA in data set [3] came to 0.36.
